Reference: ChEMBL document CHEMBL5726928, “Aryl, heteroaryl, and heterocyclic compounds for treatment of medical disorders” (2019)
pIC50: −log10 of the molar value.

target: Complement factor D (Homo sapiens, UniProt P00746); assay: Human Factor D Assay: Human Factor D (purified from human serum, Complement Technology, Inc.) at 80 nM final concentration was incubated with test compound at various concentrations for 5 minutes at room temperature in 50 mM Tris, 1M NaCl, pH 7.5. A synthetic substrate Z-L-Lys-SBzl and DTNB (Ellman's reagent) are added to final concentrations of 100 μM each. […] IC50 values are calculated by nonlinear regression of complement Factor D reaction rates as a function of test compound concentration.
Sequence (P00746 whole entry): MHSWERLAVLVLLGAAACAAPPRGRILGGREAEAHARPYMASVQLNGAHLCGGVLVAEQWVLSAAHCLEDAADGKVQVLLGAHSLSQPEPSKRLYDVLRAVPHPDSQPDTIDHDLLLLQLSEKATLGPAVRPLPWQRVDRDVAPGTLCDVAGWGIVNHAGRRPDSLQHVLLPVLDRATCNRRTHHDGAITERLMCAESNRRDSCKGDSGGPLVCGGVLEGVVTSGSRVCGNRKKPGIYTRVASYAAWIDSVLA

| Compound | pIC50 |
| --- | --- |
| CC(=O)c1nn(CC(=O)N2C[C@H](F)C[C@H]2C(=O)N[C@H](C)[C@H]2CC2(Cl)Cl)c2ccc(-c3cnc(C)nc3)cc12 | > 6.00 |
| CC(=O)c1nn(CC(=O)N2C[C@H](F)C[C@H]2C(=O)Nc2cccc(Br)n2)c2ccc(-c3cnc([S+](C)[O-])nc3)cc12 (stereo partly specified) | > 6.00 |
| CC(=O)c1nn(CC(=O)N2C[C@H](F)C[C@H]2C(=O)NC[C@H]2CC2(Cl)Cl)c2ccc(-c3cnc(C)nc3)cc12 | > 6.00 |
| COCCNc1ncc(-c2ccc3c(c2)c(C(C)=O)cn3CC(=O)N2[C@@H]3C[C@@H]3C[C@H]2C(=O)Nc2cccc(Br)n2)cn1 | > 6.00 |
| CC(=O)c1nn(CC(=O)N2C[C@H](F)C[C@H]2C(=O)Nc2cccc(Br)n2)c2ccc(-c3cnnc(C)c3)cc12 | > 6.00 |
| CC(=O)c1nn(CC(=O)N2C[C@H](F)C[C@H]2C(=O)Nc2ccn(CCC(F)(F)F)n2)c2ccc(-c3cnc(C)nc3)cc12 | > 6.00 |
| CCn1ccc(NC(=O)[C@@H]2C[C@@H](F)CN2C(=O)Cn2nc(C(C)=O)c3cc(-c4cnc(C)nc4)ccc32)n1 | > 6.00 |
| CC(=O)c1nn(CC(=O)N2C[C@H](F)C[C@H]2C(=O)Nc2nn(CC(F)(F)F)cc2C)c2ccc(-c3cnc(C)nc3)cc12 | > 6.00 |
| CC(=O)c1nn(CC(=O)N2C[C@H](F)C[C@H]2C(=O)NC[C@@H]2CC2(Cl)Cl)c2ccc(-c3cnc(C)nc3)cc12 | > 6.00 |
| CC(=O)c1nn(CC(=O)N2C[C@H](F)C[C@H]2C(=O)N[C@H]2C[C@@H]2c2ccccc2Cl)c2ccc(-c3cnc(C)nc3)cc12 | > 6.00 |
| CC(=O)c1nn(CC(=O)N2C[C@H](F)C[C@H]2C(=O)Nc2cccc(OC(F)(F)F)c2C#N)c2ccc(-c3cnc(C)nc3)cc12 | > 6.00 |
| COc1ccc(Br)nc1NC(=O)[C@@H]1C[C@@H](F)CN1C(=O)Cn1nc(C(C)=O)c2cc(-c3cnc(C)nc3)ccc21 | > 6.00 |
| CC(=O)c1cn(CC(=O)N2C[C@H](F)C[C@H]2C(=O)Nc2cccc(Br)n2)c2ccc(-c3cnc4ccnn4c3)cc12 | > 6.00 |
| CC(=O)c1nn(CC(=O)N2[C@H](C(=O)NCc3cccc(Cl)c3F)C[C@@]3(C)C[C@@H]23)c2ccc(-c3cnc(C)nc3)cc12 | > 6.00 |
| CC(=O)c1nn(CC(=O)N2C[C@H](F)C[C@H]2C(=O)Nc2nc(Br)ccc2Cl)c2ccc(-c3cnc(C)nc3)cc12 | > 6.00 |
| CC(=O)c1nn(CC(=O)N2C[C@H](F)C[C@H]2C(=O)Nc2cccc(OC(F)(F)F)n2)c2ccc(-c3cnc(N)nc3)cc12 | > 6.00 |

| Compound | pIC50 |
| --- | --- |
| CC(=O)c1nn(CC(=O)N2[C@H](C(=O)NCC3CC3(Cl)Cl)C[C@@]3(C)C[C@@H]23)c2ccc(-c3cnc(C)nc3)cc12 (stereo partly specified) | > 6.00 |
| CC(=O)c1nn(CC(=O)N2[C@H](C(=O)NCc3cccc(Cl)c3)C[C@@]3(C)C[C@@H]23)c2ccc(-c3cnc(C)nc3)cc12 | > 6.00 |
| COCCNc1ncc(-c2ccc3c(c2)c(C(C)=O)cn3CC(=O)N2C[C@H](F)C[C@H]2C(=O)Nc2cccc(Br)n2)cn1 | > 6.00 |
| Cc1cc2ncc(-c3ccc4c(c3)c(C(N)=O)nn4CC(=O)N3C[C@H](F)C[C@H]3C(=O)Nc3cccc(OC(F)(F)F)c3F)cn2n1 | > 6.00 |
| CCOC(=O)Cc1ncc(-c2ccc3c(c2)c(C(C)=O)nn3CC(=O)N2C[C@H](F)C[C@H]2C(=O)Nc2nc(Br)ccc2C)cn1 | > 6.00 |
| CC(=O)c1nn(CC(=O)N2C[C@H](F)C[C@H]2C(=O)Nc2cccc(Br)c2)c2ccc(-c3cnc(C)nc3)cc12 | > 6.00 |
| CC(=O)c1nn(CC(=O)N2C[C@H](F)C[C@H]2C(=O)N[C@@H]2C[C@H]2c2ccccc2Cl)c2ccc(-c3cnc(C)nc3)cc12 | > 6.00 |
| CC(=O)c1nn(CC(=O)N2[C@@H]3C[C@@H]3C[C@H]2C(=O)NC/C(F)=C(/C)c2ccccc2)c2ccc(-c3cnc(C)nc3)cc12 | > 6.00 |
| CC(=O)c1nn(CC(=O)N2C[C@H](F)C[C@H]2C(=O)Nc2ccc(F)c(Br)c2F)c2ccc(-c3cnc(C)nc3)cc12 | > 6.00 |
| CC(=O)c1nn(CC(=O)N2C[C@@](F)(CO)C[C@H]2C(=O)Nc2cccc(Br)n2)c2ccc(-c3cnc(C)nc3)cc12 | > 6.00 |
| CC(=O)c1nn(CC(=O)N2C[C@H](F)C[C@H]2C(=O)Nc2cccnn2)c2ccc(-c3cnc4cc(C)nn4c3)cc12 | > 6.00 |
| CC(=O)c1nn(CC(=O)N2C[C@H](F)C[C@H]2C(=O)Nc2cccc(Br)n2)c2ccc(-c3nc4ccccc4[nH]3)cc12 | > 6.00 |
| CC(=O)c1nn(CC(=O)N2C[C@H](F)C[C@H]2C(=O)Nc2cccc(C)n2)c2ccc(-c3cnc(C)nc3)cc12 | > 6.00 |
| CC(=O)c1nn(CC(=O)N2[C@@H]3C[C@@H]3C[C@H]2C(=O)Nc2cccc(Br)n2)c2ccc(-c3cnc(NC(C)C)nc3)cc12 | > 6.00 |
| CC(=O)c1nn(CC(=O)N2[C@@H]3C[C@@H]3C[C@H]2C(=O)Nc2nc(Br)ccc2C)c2ccc(-c3cnc(C)nc3)cc12 | > 6.00 |
